Test results: US8455649B2, “Insecticidal substituted azinyl derivatives” (Dow AgroSciences, LLC, priority 2007, dated 2013)
Read-outs that look alike come from different tables or passages of the source.

What was measured:
[1] = test system: Corn Earworm (Helicoverpa zea); assay: Insecticidal diet-surface test for corn earworm; assay type: in vivo; conditions: 120 h, read-out: HELIZE AVG % Mortality (50 μg/cm^2)
Description: (§1) The compounds identified in Table 1 were tested against beet armyworm and corn earworm as follows:
(§2) Insecticidal Test for Corn Earworm (Helicoverpa zea) and Beet Armyworm (Spodoptera exigua).
(§3) To prepare test solution, the test compound was formulated at 2000 ppm solution as 4 mg/2 mL of 9 acetone:1 tap water. 50 μL of the 2000 ppm (equivalent to 50 μg/cm^2 dose on diet surface area) test solution was pipetted upon the surface of 1 mL of lepidopteran diet (Southland Multi-Species Lepidopteran Diet) contained in each of eight wells per insect species (one well=1 replication). A second-instar corn earworm and beet armyworm was placed upon the treated diet in each well once the solvent had air-dried. Trays containing the treated diet and larvae were covered and then held in a growth chamber at 25° C., 50-55% RH, and 16 hr light:8 hr dark for 5 days. Observation were conducted 5 days after treatment and infestation. The number of dead insects of 8 per species per treatment was then determined and the results are given in Table 2 as a percent control at a dose of […].

[2] = test system: Beet Armyworm (Spodoptera exigua); assay: Insecticidal diet-surface test for beet armyworm; assay type: in vivo; conditions: 120 h, read-out: LAPHEG AVG % Mortality (50 μg/cm^2)
Description: as §1, §2, §3

[3] = second-instar larvae on treated diet, 50 μg/cm^2 on diet surface, 5 days after treatment, 8 insects per treatment

Structure (SMILES)	mortality at 50 µg/cm2 [1, 3]	mortality at 50 µg/cm2 [2, 3]	mortality at 50 µg/cm2 [1]	mortality at 50 µg/cm2 [2]
CCOCN(C(=O)N(COCc1ccccc1)c1nc(OCC(F)(F)F)cc(OCC(F)(F)F)n1)c1ccc(C(F)(F)F)cc1 [Compound 33, N-Benzyloxymethyl-N-[4,6-bis(2,2,2-trifluoroethoxy)pyrimidin-2-yl]-N′-ethoxymethyl-N′-[4-(trifluoromethyl)phenyl]urea]	100%	100%	–	–
CCOCN(C(=O)N(COCc1ccccc1)c1nc(OCC(F)(F)F)cc(OCC(F)(F)F)n1)c1ccc(C(F)(F)F)nc1 [Compound 88]	100%	100%	–	–
CN(C(=O)Nc1nc(OCC(F)(F)F)cc(OCC(F)(F)F)n1)c1ccc([N+](=O)[O-])cc1 [Compound 79]	100%	100%	–	–
CN(C(=O)Nc1nc(OCC(F)(F)F)nc(OCC(F)(F)F)n1)c1ccc(OC(F)(F)C(F)F)cc1 [Compound 120]	100%	100%	–	–
CCOc1cc(OCC(F)(F)F)nc(NC(=O)Nc2ccc(C(F)(F)F)cc2)n1 [Compound 100]	100%	100%	–	–
O=C(Nc1ccc(Cl)c(Cl)c1)Nc1nc(OCC(F)(F)F)cc(OCC(F)(F)F)n1 [Compound 5]	50%	25%	–	–
CN(C(=O)Nc1nc(OCC(F)(F)F)cc(OCC(F)(F)F)n1)c1ccc(Cl)cn1 [Compound 124]	100%	100%	–	–
CN(C(=O)Nc1nc(OCC(F)(F)F)cc(OCC(F)(F)F)n1)c1c(F)cccc1F [Compound 159]	0%	100%	–	–
O=C(Nc1ccc(S(=O)(=O)C(F)(F)F)cc1)Nc1nc(OCC(F)(F)F)cc(OCC(F)(F)F)n1 [Compound 59]	100%	0%	–	–
O=C1CN(c2ccc(OC(F)(F)F)cc2)C(=O)N1c1nc(OCC(F)(F)F)cc(OCC(F)(F)F)n1 [Compound 30]	100%	88%	–	–
O=C(Nc1ccc(C(F)(F)C(F)(F)F)cc1)Nc1nc(OCC(F)(F)F)cc(OCC(F)(F)F)n1 [Compound 151]	100%	100%	–	–
O=C(Nc1ccc(OC(F)(F)F)cc1)Nc1nc(OCC(F)(F)F)c(Cl)c(OCC(F)(F)F)n1 [Compound 136]	100%	100%	–	–
CN(C(=O)Nc1cc(OCC(F)(F)F)nc(OCC(F)(F)F)n1)c1ccc(Br)cc1 [Compound 108]	100%	100%	–	–
CN(C(=O)Nc1nc(OCC(F)(F)F)cc(OCC(F)(F)F)n1)c1ccc(Cl)cc1 [Compound 21]	100%	100%	–	–
O=C(Nc1ccc(OC(F)(F)F)cc1)Nc1nc(OCC(F)(F)C(F)(F)F)cc(OCC(F)(F)C(F)(F)F)n1 [Compound 104]	100%	0%	–	–
CC(C)(C)COCN(C(=O)Nc1nc(OCC(F)(F)F)cc(OCC(F)(F)F)n1)c1ccc(C(F)(F)F)cc1 [Compound 61]	100%	100%	–	–
O=C(Nc1ccc(OC(F)=C(Cl)Cl)cc1)Nc1nc(OCC(F)(F)F)cc(OCC(F)(F)F)n1 [Compound 16]	0%	100%	–	–
O=C(Nc1nc(OCC(F)(F)F)cc(OCC(F)(F)F)n1)Nc1ccccc1OC(F)(F)F [Compound 134]	100%	100%	–	–
Cc1c(OCC(F)(F)F)nc(NC(=O)Nc2ccc(Br)cc2)nc1OCC(F)(F)F [Compound 139]	88%	88%	–	–
O=C(Nc1ccc(C(F)(F)F)cc1)Nc1nc(OCC(F)(F)F)c(Cl)c(OCC(F)(F)F)n1 [Compound 145]	0%	100%	–	–
Cc1c(OCC(F)(F)F)nc(NC(=O)N(C)c2ccc(OC(F)(F)F)cc2)nc1OCC(F)(F)F [Compound 142]	100%	100%	–	–
O=C(Nc1ccc(OC(F)(F)F)cc1)Nc1nc(OCC(F)(F)F)cc(OCC(F)(F)F)n1 [Compound 3, N-(4-trifluoromethoxyphenyl)-N′-[4,6-(2,2,2-trifluoroethoxy)pyrimidin-2-yl]urea]	100%	100%	–	–
CN(C(=O)Nc1nc(OCC(F)(F)F)cc(OCC(F)(F)F)n1)c1ccc(C(F)(F)C(F)(F)F)cc1 [Compound 152]	100%	100%	–	–
[2H]C([2H])([2H])N(C(=O)Nc1nc(OCC(F)(F)F)cc(OCC(F)(F)F)n1)c1ccc(C(F)(F)F)cc1 [Compound 96]	100%	100%	–	–

Structure (SMILES)	mortality at 50 µg/cm2 [1, 3]	mortality at 50 µg/cm2 [2, 3]	mortality at 50 µg/cm2 [1]	mortality at 50 µg/cm2 [2]
O=C(Nc1ccc(C(F)(F)F)nc1)Nc1nc(OCC(F)(F)F)c(Cl)c(OCC(F)(F)F)n1 [Compound 135]	100%	100%	–	–
O=C(Nc1ccc(Br)cc1)Nc1nc(OCC(F)(F)F)cc(OCC(F)(F)F)n1 [Compound 22]	100%	100%	–	–
CN(C(=O)Nc1cc(OCC(F)(F)F)nc(OCC(F)(F)F)n1)c1ccc([N+](=O)[O-])cc1 [Compound 111]	88%	100%	–	–
CN(C(=O)Nc1nc(OCC(F)(F)F)nc(OCC(F)(F)F)n1)c1ccc(C(F)(F)F)cc1 [Compound 118, N′-[4,6-bis(2,2,2-trifluoroethoxy)-1,3,5-triazin-2-yl]-N-(4-trifluoromethylphenyl)-N-methylurea]	100%	100%	–	–
CN(C(=O)Nc1nc(OCC(F)(F)F)cc(OCC(F)(F)F)n1)c1ccc(SC(F)(F)F)cc1 [Compound 80]	100%	100%	–	–
CN(C(=O)Nc1nc(OCC(F)(F)F)cc(OCC(F)(F)F)n1)c1cc(F)c(Br)cc1F [Compound 182]	100%	100%	–	–
COCN(C(=O)N(COCc1ccccc1)c1nc(OCC(F)(F)F)cc(OCC(F)(F)F)n1)c1ccc(C(F)(F)F)cc1 [Compound 37]	100%	100%	–	–
O=C(Nc1ccc(I)cc1)Nc1nc(OCC(F)(F)F)cc(OCC(F)(F)F)n1 [Compound 54]	100%	100%	–	–
CN(C(=O)N(C)c1nc(OCC(F)(F)F)cc(OCC(F)(F)F)n1)c1ccc(OC(F)(F)F)cc1 [Compound 11, N-[4,6-bis(2,2,2-trifluoroethoxy)pyrimidin-2-yl]-N,N′-dimethyl-N-[4-(trifluoromethoxy)phenyl]urea]	100%	100%	–	–
O=C(Nc1ccc(Br)cc1)Nc1cc(C(F)(F)F)cc(OCC(F)(F)F)n1 [Compound 166]	100%	100%	–	–
CN(C(=O)Nc1nc(OCC(F)(F)F)cc(OCC(F)(F)F)n1)c1ccc(C(F)(F)F)cc1Cl [Compound 160]	100%	100%	–	–
CN(C(=O)Nc1nc(OCC(F)(F)F)cc(OCC(F)(F)F)n1)c1ccc(F)cn1 [Compound 125]	100%	88%	–	–
CN(C(=O)Nc1nc(OCC(F)(F)F)cc(OCC(F)(F)F)n1)c1ccc(C(F)(F)F)c(Cl)c1 [Compound 153]	100%	100%	–	–
COCN(C(=O)N(COCc1ccccc1)c1nc(OCC(F)(F)F)cc(OCC(F)(F)F)n1)c1ccc(C(F)(F)F)nc1 [Compound 89]	100%	100%	–	–
O=C(Nc1ccc(C(F)(F)F)cc1)Nc1nc(OCC(F)F)cc(OCC(F)F)n1 [Compound 2]	100%	100%	–	–
O=C(Nc1ccc(C(F)(F)F)cc1)Nc1nc(OCC(F)(F)F)cc(C(F)(F)F)n1 [Compound 102, N-(4-trifluoromethylphenyl)-N′-[4-trifluoromethyl-6-(2,2,2-trifluoroethoxy)pyrimidin-2-yl]urea]	100%	0%	–	–
CCc1cc(Br)ccc1N(C)C(=O)Nc1nc(OCC(F)(F)F)cc(OCC(F)(F)F)n1 [Compound 157]	100%	100%	–	–
CN(C(=O)Nc1nc(OCC(F)(F)F)cc(OCC(F)(F)F)n1)c1ccc(C(F)(F)F)c(F)c1 [Compound 154]	100%	100%	–	–
CCN(C(=O)Nc1nc(OCC(F)(F)F)cc(OCC(F)(F)F)n1)c1ccc(Br)nc1 [Compound 46]	100%	100%	–	–
O=C(Nc1cc(F)c(C(F)(F)F)c(F)c1)Nc1nc(OCC(F)(F)F)cc(OCC(F)(F)F)n1 [Compound 76]	100%	100%	–	–
COCCOCN(C(=O)N(COCc1ccccc1)c1nc(OCC(F)(F)F)cc(OCC(F)(F)F)n1)c1ccc(C(F)(F)F)cc1 [Compound 52]	100%	100%	–	–
Cc1c(OCC(F)(F)F)nc(NC(=O)N(C)c2ccc(Br)cc2)nc1OCC(F)(F)F [Compound 140]	100%	100%	–	–
CN(C(=O)Nc1nc(OCC(F)(F)F)cc(OCC(F)(F)F)n1)c1ccc(C#N)c(Cl)c1 [Compound 92]	–	–	100%	100%
